Active and inactive are the calls of the source. The calls are words filed in the database; no cut-off is given here.
Columns and labels:
C6 [1] = assay: Inhibition of cell proliferation of rat C6 cells assessed as cell viability at 100 uM after 72 hrs by sulforhodamine B assay; assay type: functional; conditions: C6, 72 h, read-out: Activity
U-251 [2] = assay: Inhibition of cell proliferation of human U251 cells assessed as cell viability after 72 hrs by sulforhodamine B assay; assay type: functional, cell-based; conditions: for IC50: U-251, 72 h
U-87MG ATCC = assay: (§1) Inhibition of cell proliferation of human U87MG cells assessed as cell viability after 72 hrs by sulforhodamine B assay; assay type: functional, cell-based
U-251 [3] = assay: Inhibition of cell proliferation of human U251 cells assessed as cell viability at 100 uM after 72 hrs by sulforhodamine B assay; assay type: functional; conditions: U-251, 72 h, read-out: Activity
C6 [4] = assay: Inhibition of cell proliferation of rat C6 cells assessed as cell viability after 72 hrs by sulforhodamine B assay; assay type: functional, cell-based; conditions: for IC50: C6, 72 h
C6 [5] = assay: Induction of apoptosis in rat C6 cells assessed as nuclear pyknosis at 2.5 uM after 72 hrs by DAPI staining based fluorescence microscopy; assay type: functional, cell-based
C6 [6] = assay: Induction of necrosis in rat C6 cells at 2.5 uM after 72 hrs by propidium iodide staining based fluorescence microscopy; assay type: functional, cell-based
U-251 [7] = assay: Induction of apoptosis in human U251 cells assessed as nuclear pyknosis at 20 uM after 72 hrs by DAPI staining based fluorescence microscopy; assay type: functional, cell-based
U-251 [8] = assay: Induction of necrosis in human U251 cells at 20 uM after 72 hrs propidium iodide staining based fluorescence microscopy; assay type: functional, cell-based
[9] = as §1; assay type: functional, cell-based, U-87MG ATCC; conditions: U-87 MG
U-251 [10] = assay: Induction of apoptosis in human U251 cells assessed as nuclear pyknosis at 10 uM after 72 hrs by DAPI staining based fluorescence microscopy; assay type: functional, cell-based
U-251 [11] = assay: Induction of apoptosis in human U251 cells assessed as late apoptotic level at 10 uM after 72 hrs by annexin V-FITC/propidium iodide double staining based flow cytometry (reference value: 3.16%); assay type: functional
C6 [12] = assay: Induction of apoptosis in rat C6 cells assessed as necrotic cell level at 6 uM after 72 hrs by annexin V-FITC/propidium iodide double staining based flow cytometry (reference value: 1.22%); assay type: functional
C6 [13] = assay: Induction of necrosis in rat C6 cells at 6 uM after 72 hrs by propidium iodide staining based fluorescence microscopy; assay type: functional, cell-based
C6 [14] = assay: Induction of apoptosis in rat C6 cells assessed as early apoptotic level at 6 uM after 72 hrs by annexin V-FITC/propidium iodide double staining based flow cytometry (reference value: 1.67%); assay type: functional
U-251 [15] = assay: Induction of apoptosis in human U251 cells assessed as necrotic cell level at 10 uM after 72 hrs by annexin V-FITC/propidium iodide double staining based flow cytometry (reference value: 1.79%); assay type: functional
U-251 [16] = assay: Induction of apoptosis in human U251 cells assessed as viable cell level at 10 uM after 72 hrs by annexin V-FITC/propidium iodide double staining based flow cytometry (reference value: 94.49%); assay type: functional
C6 [17] = assay: Induction of apoptosis in rat C6 cells assessed as nuclear pyknosis at 6 uM after 72 hrs by DAPI staining based fluorescence microscopy; assay type: functional, cell-based
U-251 [18] = assay: Induction of necrosis in human U251 cells at 10 uM after 72 hrs propidium iodide staining based fluorescence microscopy; assay type: functional, cell-based
U-251 [19] = assay: Induction of apoptosis in human U251 cells assessed as early apoptotic level at 10 uM after 72 hrs by annexin V-FITC/propidium iodide double staining based flow cytometry (reference value: 0.56%); assay type: functional
C6 [20] = assay: Induction of apoptosis in rat C6 cells assessed as late apoptotic level at 6 uM after 72 hrs by annexin V-FITC/propidium iodide double staining based flow cytometry (reference value: 3.68%); assay type: functional
C6 [21] = assay: Induction of apoptosis in rat C6 cells assessed as viable cell level at 6 uM after 72 hrs by annexin V-FITC/propidium iodide double staining based flow cytometry (reference value: 93.43); assay type: functional
U-251 [22] = assay: Induction of apoptosis in human U251 cells assessed as early apoptotic level at 40 uM after 72 hrs by annexin V-FITC/propidium iodide double staining based flow cytometry (reference value: 1.77%); assay type: functional
C6 [23] = assay: Induction of apoptosis in rat C6 cells assessed as nuclear pyknosis at 10 uM after 72 hrs by DAPI staining based fluorescence microscopy; assay type: functional, cell-based
U-251 [24] = assay: Induction of apoptosis in human U251 cells assessed as necrotic cell level at 40 uM after 72 hrs by annexin V-FITC/propidium iodide double staining based flow cytometry (reference value: 2.24%); assay type: functional
C6 [25] = assay: Induction of necrosis in rat C6 cells at 10 uM after 72 hrs by propidium iodide staining based fluorescence microscopy; assay type: functional, cell-based
U-251 [26] = assay: Induction of apoptosis in human U251 cells assessed as nuclear pyknosis at 15 uM after 72 hrs by DAPI staining based fluorescence microscopy; assay type: functional, cell-based
U-251 [27] = assay: Induction of apoptosis in human U251 cells assessed as late apoptotic level at 40 uM after 72 hrs by annexin V-FITC/propidium iodide double staining based flow cytometry (reference value: 4.95%); assay type: functional
U-251 [28] = assay: Induction of necrosis in human U251 cells at 15 uM after 72 hrs propidium iodide staining based fluorescence microscopy; assay type: functional, cell-based
U-251 [29] = assay: Induction of apoptosis in human U251 cells assessed as viable cell level at 40 uM after 72 hrs by annexin V-FITC/propidium iodide double staining based flow cytometry (reference value: 91.04%); assay type: functional

| Structure (SMILES) | viability at 100 µM (C6 [1]) [%] | inhibition (U-251 [2]) | inhibition (U-87MG ATCC) | viability at 100 µM (U-251 [3]) [%] | inhibition (C6 [4]) | IC50 (U-251 [2]) [µM] | IC50 (C6 [4]) [µM] | IC50 [9] [µM] | other results |
| --- | --- | --- | --- | --- | --- | --- | --- | --- | --- |
| C[C@@H]1O[C@@H](O[C@H]2[C@H](OC(=O)[C@]34CCC(C)(C)C[C@H]3C3=CC[C@@H]5[C@@]6(C)CC[C@H](O[C@@H]7O[C@H](CO[C@@H]8OC[C@H](O)[C@H](O)[C@H]8O[C@@H]8OC[C@@H](O)[C@H](O)[C@H]8O)[C@@H](O)[C@H](O)[C@H]7O)C(C)(C)[C@@H]6CC[C@@]5(C)[C@]3(C)C[C@H]4O)O[C@H](CO)[C@@H](O)[C@@H]2O)[C@H](O[C@@H]2OC[C@@H](O)[C@H](O)[C@H]2O)[C@H](O)[C@H]1O[C@@H]1OC[C@@H](O)[C@H](O[C@@H]2OC[C@@H](O)[C@H](O)[C@H]2O)[C@H]1O | 81.6 | inactive | inactive | 93.6 | inactive |  |  |  |  |
| CC1(C)CC[C@]2(C(=O)O)[C@H](O)C[C@]3(C)C(=CC[C@@H]4[C@@]5(C)CC[C@H](O[C@@H]6O[C@H](CO[C@@H]7OC[C@H](O)[C@H](O)[C@H]7O[C@@H]7OC[C@@H](O)[C@H](O)[C@H]7O)[C@@H](O)[C@H](O)[C@H]6O)C(C)(C)[C@@H]5CC[C@]43C)[C@@H]2C1 | 86.2 | inactive | inactive | 88.8 | inactive |  |  |  |  |
| CC1(C)CC[C@]2(C(=O)O)CC[C@]3(C)C(=CC[C@@H]4[C@@]5(C)CC[C@H](O[C@@H]6O[C@H](CO[C@@H]7OC[C@H](O)[C@H](O)[C@H]7O[C@@H]7OC[C@@H](O)[C@H](O)[C@H]7O)[C@@H](O)[C@H](O)[C@H]6O)C(C)(C)[C@@H]5CC[C@]43C)[C@@H]2C1 [PITHEDULOSIDE C] | 63 | inactive | inactive | 104 | inactive |  |  |  |  |
| COc1cc(CCC(=O)OCCc2ccc(O)c(O)c2)ccc1O |  |  |  | 48.4 |  | 29.5 | 5.37 |  | Activity (C6 [5]): Active; Activity (C6 [6]): Active; Activity (U-251 [7]): Active; Activity (U-251 [8]): Active |
| C[C@@H]1O[C@@H](OC[C@H]2O[C@@H](OC(=O)[C@]34CCC(C)(C)C[C@H]3C3=CC[C@@H]5[C@@]6(C)CC[C@H](O[C@@H]7O[C@H](CO[C@@H]8OC[C@H](O)[C@H](O)[C@H]8O[C@@H]8OC[C@@H](O)[C@H](O)[C@H]8O)[C@@H](O)[C@H](O)[C@H]7O)C(C)(C)[C@@H]6CC[C@@]5(C)[C@]3(C)CC4)[C@H](O[C@@H]3O[C@@H](C)[C@H](O[C@@H]4OC[C@@H](O)[C@H](O[C@@H]5OC[C@@H](O)[C@H](O)[C@H]5O)[C@H]4O)[C@@H](O)[C@H]3O)[C@@H](O)[C@@H]2O)[C@H](O)[C@H](O)[C@H]1O | 97.2 | inactive | inactive | 83.9 | inactive |  |  |  |  |
| Cn1nnc2c(C(N)=O)ncn2c1=O [TEMOZOLOMIDE] |  |  |  |  |  | > 200 | 60.5 | > 200 |  |
| C[C@@H]1O[C@@H](OC[C@H]2O[C@@H](OC(=O)[C@]34CCC(C)(C)C[C@H]3C3=CC[C@@H]5[C@@]6(C)CC[C@H](O[C@@H]7O[C@H](CO[C@@H]8OC[C@H](O)[C@H](O)[C@H]8O)[C@@H](O)[C@H](O)[C@H]7O)C(C)(C)[C@@H]6CC[C@@]5(C)[C@]3(C)C[C@H]4O)[C@H](O[C@@H]3O[C@@H](C)[C@H](O[C@@H]4OC[C@@H](O)[C@H](O[C@@H]5OC[C@@H](O)[C@H](O)[C@H]5O)[C@H]4O)[C@@H](O)[C@H]3O)[C@@H](O)[C@@H]2O)[C@H](O)[C@H](O)[C@H]1O | 63.9 | inactive | inactive | 72.3 | inactive |  |  |  |  |
| C=C[C@@](C)(O)CC/C=C(\C)C(=O)OC[C@H]1O[C@@H](OC(=O)[C@]23CCC(C)(C)C[C@H]2C2=CC[C@@H]4[C@@]5(C)CC[C@H](O[C@@H]6O[C@H](CO[C@@H]7OC[C@H](O)[C@H](O)[C@H]7O[C@@H]7OC[C@@H](O)[C@H](O)[C@H]7O)[C@@H](O)[C@H](O)[C@H]6O)C(C)(C)[C@@H]5CC[C@@]4(C)[C@]2(C)CC3)[C@H](O[C@@H]2O[C@@H](C)[C@H](O[C@@H]3OC[C@@H](O)[C@H](O[C@@H]4OC[C@@H](O)[C@H](O)[C@H]4O)[C@H]3O)[C@@H](O)[C@H]2O)[C@@H](O)[C@@H]1O |  |  |  | 14.2 |  | 16.9 | 7.3 | 14.7 | Activity (U-251 [10]): Active; Activity (U-251 [11]): 18.13%; Activity (C6 [12]): 21.75%; Activity (C6 [13]): Active; Activity (C6 [14]): 16.73%; Activity (U-251 [15]): 13.62%; Activity (U-251 [16]): 64.13%; Activity (C6 [17]): Active; Activity (U-251 [18]): Active; Activity (U-251 [19]): 4.12%; Activity (C6 [20]): 21.37%; Activity (C6 [21]): 40.15% |
| C/C=C(/C)C(=O)O[C@H]1[C@H](O)[C@]2(COC(C)=O)[C@H](O)C[C@]3(C)C(=CC[C@@H]4[C@@]5(C)CC[C@H](O[C@@H]6O[C@H](C(=O)OC)[C@@H](O[C@@H]7O[C@H](CO)[C@@H](O)[C@H](O)[C@H]7O)[C@H](O)[C@H]6O[C@@H]6O[C@H](CO)[C@@H](O)[C@H](O)[C@H]6O)[C@](C)(CO)[C@@H]5CC[C@]43C)[C@@H]2CC1(C)C |  |  |  | 22.2 |  | 15.6 | 11 | 8.32 | Activity (U-251 [22]): 7.06%; Activity (C6 [23]): Active; Activity (U-251 [24]): 4.3%; Activity (C6 [25]): Active; Activity (U-251 [26]): Active; Activity (U-251 [27]): 26.54%; Activity (U-251 [28]): Active; Activity (U-251 [29]): 62.1% |
| C[C@@H]1O[C@@H](O[C@H]2[C@H](OC(=O)[C@]34CCC(C)(C)C[C@H]3C3=CC[C@@H]5[C@@]6(C)CC[C@H](O[C@@H]7O[C@H](CO[C@@H]8OC[C@H](O)[C@H](O)[C@H]8O[C@@H]8OC[C@@H](O)[C@H](O)[C@H]8O)[C@@H](O)[C@H](O)[C@H]7O)C(C)(C)[C@@H]6CC[C@@]5(C)[C@]3(C)CC4)O[C@H](CO)[C@@H](O)[C@@H]2O)[C@H](O)[C@H](O)[C@H]1O[C@@H]1OC[C@@H](O)[C@H](O[C@@H]2OC[C@@H](O)[C@H](O)[C@H]2O)[C@H]1O | 62.7 | inactive | inactive | 91.8 | inactive |  |  |  |  |

Reference: ChEMBL document CHEMBL3351906, “Bioactive triterpenoid saponins and phenolic compounds against glioma cells” (Bioorg Med Chem Lett, 2014)
